The text below walks through data of US11464751B2, “Use of fluoroethylnormemantine for the prevention and treatment of anxiety” (REST THERAPEUTICS, priority 2017, dated 2022).

For test [1], the system named is naive rats (Wistar). Conditions: 5 mg/kg, only after 7 days of treatment; cited from earlier work.
The subject of test [2] is naive rats (Wistar). The test is described as follows: Fear conditioning + extinction + stabilization (PTSD model). Conditions: for Percentage of time of tetany (freezing) during the stabilization phase: 10 mg/kg. It counts as in vivo, rat. An excerpt: Several animal models have been developed to mimic the traumatic events that induce intense and recurrent fear symptoms characteristic of PTSD. • Pavlovian fear conditioning of the animals: This animal model consists of Pavlovian-type fear conditioning (Zovkic, Neuropsychopharmacology Reviews (2013) 38, 77-93): mice (or rats) are trained to associate exposure to danger (electric shock, etc.) with the presence of a specific cue or environment (sound cue for example). The memory of this association (danger-cue) is later tested by measuring tetany behavior (through fear) when the animal is re-exposed to the conditioning cue in the absence of real danger.
Again, the occurrence of symptoms of PTSD are assessed after a certain period of time, without exposure to the hazard, to simulate the long-term onset of PTSD pathology. • Fear extinction: After a fear conditioning as described above it can be of interest to apply a protocol to extinguish this fear. Classically, this phase is placed 24 hours after the conditioning phase.
The extinction protocols model the relearning of the normal (non-fear-motivated) response to the cue (sound) and are very useful in modeling PTSD. • Fear stabilization: It can be useful, to assess the performance of a treatment, to add a stabilization phase after the extinction phase, spaced 24 h apart. Typically, this phase puts the animals back under the extinction phase conditions. It then allows the detection of staggered performances of the treatments, but also of the resurgence of tetany (rebound effect).
In the following examples, the effects of memantine, propranolol and fluoroethylnormemantine (FENM, the subject of the present invention) are studied in naive rats (Wistar) subjected to various tests related to depression or anxiety and then compared.
The test substances are administered to rats intraperitoneally in a volume of 5 ml/kg, 30 minutes before the behavioral tests are performed.
The injected solutions contain either of the molecules in the form of one of their salts, a hydrochloride (memantine·HCl and FENM·HCl) for the nitrogen derivatives and as such for propranolol, at the concentrations indicated below in a mixture of 95% (NaCl 0.9% ww in water)/5% ethanol. In each experiment, the dose per kilogram is referenced.
The applicant used a fear conditioning test in which the clue (neutral conditional stimulus) is a sound, coupled with a danger (aversive unconditional stimulus) which is an electric shock delivered by the floor of the box. This conditioning is followed by a fear extinction phase with injection of the treatment solutions to be tested and then by a test phase itself. • Fear Conditioning Phase (FC): fear conditioning takes place in a standard conditioning box (context A, white box in Table 7) and the rats (8 per group) are subjected to 3 “sound-electroshock” pairs at times of 180 s, 381 s and 582 s after being placed in the box. Each sound lasts 20 s and each electroshock lasts 1 s with a current of 1 mA. • The fear extinction phase (Ext.) is conducted as follows: the rats are placed in a box similar to the one that will be used for the final test (context B, pink box in Table 7), for a 25-minute session. During this session, 24 presentations are made with the same sound as that used during the conditioning session (20 s each, 35 s apart). Of course, no electric shock is delivered, and the percentage of time of tetany (“freezing”) during the phase is recorded. • Stabilization phase: the day after the extinction phase, 30 minutes before the test phase, […] of 3 sounds (same sequence as used for conditioning), recording the percentage of time they remain still during this test phase. […]

For the molecule `CNCCC(Oc1ccc(C(F)(F)F)cc1)c1ccccc1` (stereo not drawn) [fluoxetine], the “anxiolytic activity (light-dark box, for comparison)” value in the test on naive rats (Wistar) [1] was “anxiolytic activity”.
As for `CC(C)NCC(O)COc1cccc2ccccc12` (stereo not drawn) [Propranolol, propranolol, reference compound], the “Percentage of time of tetany (freezing) during the stabilization phase” value with naive rats (Wistar) [2] (Early treatment: one injection 30 minutes before the extinction phase) came out at 26%; in the test on naive rats (Wistar) [2] (Late treatment: one injection 30 minutes before the stabilization phase), 29%; with naive rats (Wistar) [2] (Protective effect: one injection 30 minutes before the conditioning phase), 28%. The “tetany in the stabilization phase compared with control” value with naive rats (Wistar) [2] (administered at conditioning, early or late post-traumatic treatment) is recorded as “does not differentiate from the control”. Further, in the test on naive rats (Wistar) [2] (administered during the extinction phase, effect lost during the stabilization phase), the “tetany during the extinction phase” value is “reduces tetany”.
